Results as given in patent publication US20070148184A1, “Survivin-derived peptides and use thereof” (priority 2003, published 2007).

How the values were obtained:
HLA-A2 = biological target: T1, HLA-A2 (Homo sapiens, UniProt P04439, D140Y/D185E/D98H/E176V/E277Q/G131W/G231S/I119V/I121R/I166T/I218V/L300P/L318F/N151K/N90K/P208A/P217A/Q86G/Q94H/R138H/R169H/T345S); experiment: Assembly assay for peptide binding to class I MHC, HLA-A2; conditions: Example 1, Table 1; read-out: C50 (peptide concentration for half maximal binding to HLA-A2)
T1 construct: stabilization of the class I molecules after loading of peptide to the peptide transporter deficient cell line T2; endogenous in cells; host or cells: T2 (TAP-deficient human hybrid cell line), metabolically labelled lysate
Method: This assembly assay is carried out as described previously (12,13), and it is based on stabilisation of the HLA molecule after loading of peptide to the peptide transporter deficient cell line T2. Subsequently, correctly folded stable HLA heavy chains are immunoprecipitated using conformation dependent antibodies and the peptide binding is quantitated.
Assembly assays for binding of the synthetic peptides to class I MHC molecules metabolically labeled with [35S]-methionine were carried out as described (12,13). The assembly assay is based on stabilization of the class I molecules after loading of peptide to the peptide transporter deficient cell line T2. Subsequently, correctly folded stable MHC heavy chains are immunoprecipitated using conformation-dependent antibodies. After IEF electrophoresis, gels were exposed to phosphoImager screens, and peptide binding was quantified using the Imagequant PhosphorImager program (Molecular Dynamics, Sunnyvale, Calif.).
The binding affinity of synthetic peptides (Invitrogen, Carlsbad, Calif., USA) to HLA-A1, -A2, A3, or -A11 molecules metabolically labeled with [^35S]-methionine was measured in the assembly assay, as described previously (12). The assay is based on peptide-mediated stabilization of empty HLA molecules released upon cell lysis, from the TAP-deficient cell lines. […] MHC heavy chain bands were quantified using the ImageGauge Phosphorimager program (FUJI photo film Co., Carrollton, Tex., USA). The intensity of the band is proportional to the amount of peptide-bound class I MHC complex recovered during the assay. Subsequently, the extent of stabilization of the HLA-molecule is directly related to the binding affinity of the added peptide. The peptide concentration used to analyze the recovery of the HLA-molecules was 40, 4, 0.4, 0.04 μM for HLA-A1 and HLA-A11, and 100, 10, 1, 0.1, 0.01 μM for HLA-A2 and HLA-A3. The C50 value was subsequently calculated for each peptide as the peptide concentration sufficient for half maximal stabilization.

[1] = system: stage 1V melanoma patients; experiment: Vaccination of melanoma patients with peptide pulsed dendritic cells; conditions: human, in vivo
Source text: All clinical procedures were in accordance with the Declaration of Helsinki and all patients provided informed consent prior to therapy. Stage 1V cutaneous or uveal melanoma patients were eligible when their disease was progressive despite at least two different chemo-, immuno, or chemoimmunotherapies. […] Important exclusion criteria were evidence of CNS metastases, active autoimmune or infectious diseases, pregnancy and lactation, as well as significant psychiatric abnormality. Peptide pulsed dendritic cells were generated as previously described (82). Briefly, PBMCs from leukapheresis were isolated on LymphoprepTM (Nycomed Pharma), frozen in aliquots and stored in liquid nitrogen. One week prior to vaccination, PBMCs were thawed, washed and cultured in medium containing gentamycin, glutamine and heat inactivated autologous plasma. On day 1 and 5, IL-4 and GM-CSF were added. To differentiate mature DCs, […] and prostaglandin E2 were added on day 6. […] Immunological responses were monitored by the ELISPOT assay, using PBMCs obtained every three months, to detect survivin96-104 specific IFN-γ release. […] The reaction was terminated upon the appearance of dark purple spots, which were quantitated using the AlphaImager System (Alpha Innotech, San Leandro, Calif., USA).

EC50 (HLA-A2): 1000 nM
SMILES: CSCC[C@H](NC(=O)[C@@H](N)CC(C)C)C(=O)N[C@@H](CC(C)C)C(=O)NCC(=O)N[C@@H](CCC(=O)O)C(=O)N[C@@H](Cc1ccccc1)C(=O)N[C@@H](CC(C)C)C(=O)N[C@@H](CCCCN)C(=O)N[C@@H](CC(C)C)C(=O)O [Sur1M2]
vaccination associated toxicity [1]: vaccination associated toxicity was not observed
